This experiment has as its target IRE-1α (Homo sapiens (Human), UniProt O75460). Nature of the experiment: Cellular EC50: endogenous XBP-1 splicing in myeloma cells (MM.1s, DTT stress, RT-PCR). Particulars: average cellular EC50, XBP-1 splicing in myeloma cells. The experiment is classed as cell-based. How it is done: Human myeloma MM.1s cells are incubated with a compound for 1.25 hours before stressing the cells with 2 mM dithiothreitol (DTT). After an additional 45 minutes (2 hours total) with compound and DTT, the cells are harvested with TRIZOL® (a mono-phasic solution of phenol and guanidine isothiocyanate), and total RNA is prepared as directed by the manufacturer (Invitrogen). Human XBP-1 is amplified by RT-PCR with the following primers, which flank the 26 base unconventional intron excised by IRE-1α:
RT-PCR of unstressed (U) cells then generates the upper band. When cells are stressed (S) with the endoplasmic reticulum (ER) stressing agent DTT, IRE-1α is activated due to accumulating unfolded protein and the resulting RT-PCR product is 26 base pairs shorter.
Compounds which pass specificity assays are assayed for cellular EC50 using endogenous XBP-1 splicing in myeloma cells. XBP-1 is regulated through the excision of a 26 nucleotide intron from the XBP-1 mRNA by the highly specific endoribonuclease activity of IRE-1α. […] This splicing event is used to measure IRE-1α activity on XBP-1 mRNA in cells and tissues.
Briefly, compounds are incubated in the presence or absence of an ER stress agent (e.g., DTT), and the ratio of XBP-1u (unspliced) to XBP-1s (spliced) is quantified by RT-PCR. The ED50 is determined as the 50% XBP-1s to total XPB-1 levels.

IRE-1α, sequence (O75460 19-977): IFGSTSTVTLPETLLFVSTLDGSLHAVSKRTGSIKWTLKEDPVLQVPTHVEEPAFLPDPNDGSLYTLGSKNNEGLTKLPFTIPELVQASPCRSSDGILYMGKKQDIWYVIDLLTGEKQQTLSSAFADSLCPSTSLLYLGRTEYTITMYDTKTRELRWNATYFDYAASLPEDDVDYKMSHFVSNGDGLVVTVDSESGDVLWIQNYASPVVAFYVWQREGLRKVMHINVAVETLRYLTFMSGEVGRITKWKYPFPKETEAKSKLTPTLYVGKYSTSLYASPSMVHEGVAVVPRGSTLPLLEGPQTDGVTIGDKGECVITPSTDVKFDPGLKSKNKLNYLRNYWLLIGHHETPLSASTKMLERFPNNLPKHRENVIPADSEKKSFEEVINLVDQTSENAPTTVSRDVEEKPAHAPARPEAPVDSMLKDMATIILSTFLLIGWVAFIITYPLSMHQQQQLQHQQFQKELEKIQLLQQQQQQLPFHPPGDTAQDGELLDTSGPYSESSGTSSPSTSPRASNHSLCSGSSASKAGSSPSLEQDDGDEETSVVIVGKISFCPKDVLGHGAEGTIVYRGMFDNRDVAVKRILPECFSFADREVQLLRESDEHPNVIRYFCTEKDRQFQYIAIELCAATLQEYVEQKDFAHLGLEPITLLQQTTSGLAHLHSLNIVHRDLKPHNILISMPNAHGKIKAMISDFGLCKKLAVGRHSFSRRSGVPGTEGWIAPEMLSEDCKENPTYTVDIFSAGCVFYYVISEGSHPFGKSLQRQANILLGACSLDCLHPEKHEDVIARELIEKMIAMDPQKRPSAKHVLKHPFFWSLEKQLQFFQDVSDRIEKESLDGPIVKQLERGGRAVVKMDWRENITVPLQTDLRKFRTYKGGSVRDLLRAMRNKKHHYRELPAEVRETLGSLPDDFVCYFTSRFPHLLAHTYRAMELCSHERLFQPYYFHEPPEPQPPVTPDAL

In general, EC50 refers to the midpoint of the concentration-response curve. Low readings indicate an effect from little substance, high ones a need for much substance. In turn, `Cc1c(CC(=O)N2CCOCC2)c(=O)oc2c(C=O)c(O)c(OCCN3CCOCC3)cc12` [Example 206] displayed an EC50 of 10 µM.
For `COc1cc2c(=O)c(CC(=O)N3CCOCC3)c(C)oc2c(C=O)c1O` [Example 207] the value was greater than 10 µM.
In the case of `COc1cc2c(=O)c(CC(=O)N3CCN(C)CC3)c(C)oc2c(C=O)c1O` [Example 208], the EC50 is greater than 10 µM.
The molecule `CCNC(=O)Cc1c(C)oc2c(C=O)c(O)c(OC)cc2c1=O` [Example 209] returned an EC50 of less than 10 µM.
`COc1cc2c(=O)c(CC(=O)NCCN3CCOCC3)c(C)oc2c(C=O)c1O` [Example 210]: the EC50 was greater than 10 µM.
The figure for `COc1cc2c(=O)c(CC(=O)NCCN(C)C)c(C)oc2c(C=O)c1O` [Example 211] is greater than 10 µM; for `COCCNC(=O)CCc1c(C)oc2c(C=O)c(O)c(OC)cc2c1=O` [Example 212] it is greater than 10 µM.
The figure for `CCNC(=O)CCc1c(C)oc2c(C=O)c(O)c(OC)cc2c1=O` [Example 213] is greater than 10 µM; for `COc1cc2c(=O)c(CCC(=O)NCCN(C)C)c(C)oc2c(C=O)c1O` [Example 214] it is greater than 10 µM.
For `COCCNC(=O)CCc1c(C)oc2c(C=O)c(O)ccc2c1=O` [Example 215] the value was less than 10 µM; for `Cc1oc2c(C=O)c(O)ccc2c(=O)c1CCC(=O)N1CCOCC1` [Example 216], less than 10 µM.
In the case of `CCNC(=O)CCc1c(C)oc2c(C=O)c(O)ccc2c1=O` [Example 217], the concentration giving a half-maximal response (EC50) was less than 10 µM.
As to `Cc1oc2c(C=O)c(O)ccc2c(=O)c1CCC(=O)NCCN(C)C` [Example 218], the EC50 is greater than 10 µM.
The figure for `Cc1oc2c(C=O)c(O)ccc2c(=O)c1CCC(=O)NCCN1CCOCC1` [Example 219] is greater than 10 µM; for `COCCNC(=O)Cc1c(C)oc2c(C=O)c(O)ccc2c1=O` [Example 220] it is less than 10 µM; for `Cc1oc2c(C=O)c(O)ccc2c(=O)c1CC(=O)N1CCOCC1` [Example 221] it is greater than 10 µM.
On to `Cc1oc2c(C=O)c(O)ccc2c(=O)c1CC(=O)N1CCN(C)CC1` [Example 222], for which the EC50 was less than 10 µM.
Molecule `CCNC(=O)Cc1c(C)oc2c(C=O)c(O)ccc2c1=O` [Example 223] yielded an EC50 of less than 10 µM.
In the case of `Cc1oc2c(C=O)c(O)ccc2c(=O)c1CC(=O)NCCN(C)C` [Example 224], the EC50 was greater than 10 µM.
The figure for `Cc1oc2c(C=O)c(O)ccc2c(=O)c1CC(=O)NCCN1CCOCC1` [Example 225] is greater than 10 µM; for `COCCNC(=O)Cc1c(C)oc2c(C=O)c(O)cc(OC)c2c1=O` [Example 226] it is less than 10 µM; for `COc1cc(O)c(C=O)c2oc(C)c(CC(=O)N3CCOCC3)c(=O)c12` [Example 227] it is less than 10 µM.
For `CCNC(=O)Cc1c(C)oc2c(C=O)c(O)cc(OC)c2c1=O` [Example 228] the value was less than 10 µM; for `Cn1c(CCC(=O)N2CCOCC2)nc2ccc(O)c(C=O)c21` [Example 229], greater than 10 µM.
On to `CCNC(=O)CCc1nc2c(C=O)c(O)ccc2n1C` [Example 230], for which the EC50 was greater than 10 µM.
Molecule `COCCNC(=O)CCc1nc2c(C=O)c(O)ccc2[nH]1` [Example 231] returned an EC50 greater than 10 µM.
Regarding `O=Cc1c(O)ccc2[nH]c(CCC(=O)N3CCOCC3)nc12` [Example 232], the EC50 was greater than 10 µM.
The figure for `CN1CCC(NC(=O)CCc2nc3c(C=O)c(O)ccc3[nH]2)CC1` [Example 233] is less than 10 µM; for `CCNC(=O)CCc1nc2c(C=O)c(O)ccc2[nH]1` [Example 234] it is greater than 10 µM.
The figure for `O=Cc1c(O)ccc2nc(CCC(=O)NCCN3CCOCC3)[nH]c12` [Example 235] is greater than 10 µM; for `CN(C)CCNC(=O)CCc1nc2c(C=O)c(O)ccc2[nH]1` [Example 236] it is greater than 10 µM.
In turn, `COCCNC(=O)CCc1nc2ccc(O)c(C=O)c2n1C` [Example 237] registered an EC50 greater than 10 µM.
For the molecule `Cn1c(CCC(=O)NCCN2CCOCC2)nc2ccc(O)c(C=O)c21` [Example 238], the EC50 is greater than 10 µM.
Regarding `CN1CCN(C(=O)CCc2nc3ccc(O)c(C=O)c3n2C)CC1` [Example 239], the EC50 was greater than 10 µM.
With `Cn1c(CCC(=O)O)nc2ccc(O)c(C=O)c21` [Example 240], the EC50 was greater than 10 µM.
Consider `COCCNC(=O)CCc1nc2c(C=O)c(O)ccc2n1C` [Example 241], for which the EC50 is greater than 10 µM.
The figure for `Cn1c(CCC(=O)N2CCOCC2)nc2c(C=O)c(O)ccc21` [Example 242] is greater than 10 µM; for `Cn1c(CCC(=O)NCCN2CCOCC2)nc2c(C=O)c(O)ccc21` [Example 243] it is greater than 10 µM.
`CN1CCN(C(=O)CCc2nc3c(C=O)c(O)ccc3n2C)CC1` [Example 244] yielded an EC50 greater than 10 µM.
With `CCOC(=O)CCc1nc2c(C=O)c(O)ccc2n1C` [Example 245], the EC50 was less than 10 µM.
The figure for `Cn1c(CCC(=O)O)nc2c(C=O)c(O)ccc21` [Example 246] is greater than 10 µM; for `CCOC(=O)CCc1nc2c(C=O)c(O)ccc2o1` [Example 247] it is greater than 10 µM; for `O=Cc1c(O)ccc2oc(CCC(=O)O)nc12` [Example 248] it is greater than 10 µM.
For `COCCNC(=O)CCc1nc2c(C=O)c(O)ccc2o1` [Example 249] the value was greater than 10 µM; for `O=Cc1c(O)ccc2oc(CCC(=O)N3CCOCC3)nc12` [Example 250], greater than 10 µM; for `CN1CCN(C(=O)CCc2nc3c(C=O)c(O)ccc3o2)CC1` [Example 251], greater than 10 µM.
`CCNC(=O)CCc1nc2c(C=O)c(O)ccc2o1` [Example 252] registered an EC50 greater than 10 µM.
The figure for `O=Cc1c(O)ccc2oc(CCC(=O)NCCN3CCOCC3)nc12` [Example 253] is less than 10 µM; for `CC(C(=O)N1CCOCC1)c1nc2c(C=O)c(O)ccc2o1` (stereo not shown) [Example 254] it is greater than 10 µM; for `Cc1nc2c(C=O)c(O)ccc2o1` [Example 255] it is less than 10 µM.
For the molecule `Cc1nc2ccc(O)c(C=O)c2o1` [Example 256], the EC50 was greater than 10 µM.
For `O=Cc1c(O)ccc2ocnc12` [Example 257] the value was greater than 10 µM.
The figure for `COCCNC(=O)c1cc2c(C=O)c(O)ccc2s1` [Example 258] is greater than 10 µM; for `O=Cc1c(O)ccc2sc(C(=O)N3CCOCC3)cc12` [Example 259] it is greater than 10 µM; for `CN1CCN(C(=O)c2cc3c(C=O)c(O)ccc3s2)CC1` [Example 260] it is greater than 10 µM.
Molecule `CCNC(=O)c1cc2c(C=O)c(O)ccc2s1` [Example 261] had an EC50 of less than 10 µM.
For `O=Cc1c(O)ccc2sc(C(=O)NCCN3CCOCC3)cc12` [Example 262] the value was less than 10 µM; for `CN(C)CCNC(=O)c1cc2c(C=O)c(O)ccc2s1` [Example 263], greater than 10 µM; for `COC(=O)Cc1cc2c(C=O)c(O)ccc2s1` [Example 264], greater than 10 µM.
For the molecule `O=Cc1c(O)ccc2sc(CC(=O)O)cc12` [Example 265], the EC50 was greater than 10 µM.
`COCCNC(=O)CCc1cc2c(C=O)c(O)ccc2s1` [Example 266]: the EC50 was less than 10 µM.
For `CCOC(=O)CCc1cc2c(C=O)c(O)ccc2s1` [Example 267] the value was greater than 10 µM; for `O=Cc1c(O)ccc2sc(CCC(=O)N3CCOCC3)cc12` [Example 268], greater than 10 µM.
For `CCNC(=O)CCc1cc2c(C=O)c(O)ccc2s1` [Example 269] the value was greater than 10 µM; for `CN(C)CCNC(=O)CCc1cc2c(C=O)c(O)ccc2s1` [Example 271], less than 10 µM; for `COCCNC(=O)c1cc2c(C=O)c(O)ccc2[nH]1` [Example 273], greater than 10 µM.
For `O=Cc1c(O)ccc2[nH]c(C(=O)N3CCOCC3)cc12` [Example 274] the value was greater than 10 µM; for `CN1CCN(C(=O)c2cc3c(C=O)c(O)ccc3[nH]2)CC1` [Example 275], greater than 10 µM.
`CCNC(=O)c1cc2c(C=O)c(O)ccc2[nH]1` [Example 276] registered an EC50 greater than 10 µM.
The molecule `O=Cc1c(O)ccc2[nH]c(C(=O)NCCN3CCOCC3)cc12` [Example 277] had an EC50 greater than 10 µM.
Consider `CN(C)CCNC(=O)c1cc2c(C=O)c(O)ccc2[nH]1` [Example 278], for which the EC50 was greater than 10 µM.
The figure for `CCOC(=O)c1cc2c(C=O)c(O)ccc2[nH]1` [Example 279] is greater than 10 µM.
With `CCOC(=O)c1cc2c(C=O)c(O)ccc2o1` [Example 280], the EC50 is greater than 10 µM.
As for `O=Cc1c(O)ccc2oc(C(=O)O)cc12` [Example 281], the EC50 is greater than 10 µM.
In the case of `COCCNC(=O)c1cc2c(C=O)c(O)ccc2o1` [Example 282], the EC50 was greater than 10 µM.
The figure for `O=Cc1c(O)ccc2oc(C(=O)N3CCOCC3)cc12` [Example 283] is greater than 10 µM.
The figure for `CN1CCN(C(=O)c2cc3c(C=O)c(O)ccc3o2)CC1` [Example 284] is greater than 10 µM.
The figure for `CCNC(=O)c1cc2c(C=O)c(O)ccc2o1` [Example 285] is less than 10 µM; for `O=Cc1c(O)ccc2oc(C(=O)NCCN3CCOCC3)cc12` [Example 286] it is less than 10 µM.
